In US20260069588A1, “VEPDEGESTRANT FOR USE IN TREATING CANCER” (Arvinas Operation, Inc., priority 2022, published 2026):

Legend:
[1] = FIH Study Parts A and B combined: adverse events; format: in vivo, human
Description: Preliminary safety data from Part B (monotherapy dose expansion) is consistent with what has been observed in Part A (monotherapy dose escalation).

[2] = 7-day oral dose range finding toxicity study in rats; format: in vivo; conditions: rat, up to 300 mg/kg/day, 7 days
Description: Noteworthy findings were changes in the female reproductive organs, including in the ovaries (minimal to moderate increased size of tertiary follicles, retained corpora lutea, and minimal to moderate interstitial cell hypertrophy), uterus (atrophy) and vagina (mucosa atrophy).

[3] = 28-day GLP oral toxicity study in rats; conditions: both sexes, in vivo; rat, 28 days oral
Experimental: There were no mortalities and no Compound A-related clinical observations or changes in BWs or food consumption, and no FOB observations or ophthalmology findings. Minor clinical pathology changes at the 100 mg/kg/day dose level (minimally higher lymphocyte count in males, minimally lower calcium concentration in both sexes, minimally lower albumin concentration in males, and mildly lower cholesterol concentration in females) were potentially Compound A-related but were reversible and were not considered adverse.
Compound A-related microscopic findings included increased ovarian cysts in females administered ≥3 mg/kg/day and atrophy of the uterus and of the cervical and vaginal mucosal epithelium in females administered ≥10 mg/kg/day. […] Similar findings had been noted in a few animals in the 7-day study.

reticulocytes = assay: Rat micronucleus test; format: in vivo; conditions: 400, 800, 1600 mg/kg/day, two days
ER = target: T1, ER (Homo sapiens, UniProt P03372); assay: ER degradation in ER+ cell lines (MCF7); format: cell-based; parameters: endogenous in cells; host or cells: MCF7 (and a panel of unnamed ER+ cell lines); conditions: MCF7 cells
T1 sequence (P03372 1-595): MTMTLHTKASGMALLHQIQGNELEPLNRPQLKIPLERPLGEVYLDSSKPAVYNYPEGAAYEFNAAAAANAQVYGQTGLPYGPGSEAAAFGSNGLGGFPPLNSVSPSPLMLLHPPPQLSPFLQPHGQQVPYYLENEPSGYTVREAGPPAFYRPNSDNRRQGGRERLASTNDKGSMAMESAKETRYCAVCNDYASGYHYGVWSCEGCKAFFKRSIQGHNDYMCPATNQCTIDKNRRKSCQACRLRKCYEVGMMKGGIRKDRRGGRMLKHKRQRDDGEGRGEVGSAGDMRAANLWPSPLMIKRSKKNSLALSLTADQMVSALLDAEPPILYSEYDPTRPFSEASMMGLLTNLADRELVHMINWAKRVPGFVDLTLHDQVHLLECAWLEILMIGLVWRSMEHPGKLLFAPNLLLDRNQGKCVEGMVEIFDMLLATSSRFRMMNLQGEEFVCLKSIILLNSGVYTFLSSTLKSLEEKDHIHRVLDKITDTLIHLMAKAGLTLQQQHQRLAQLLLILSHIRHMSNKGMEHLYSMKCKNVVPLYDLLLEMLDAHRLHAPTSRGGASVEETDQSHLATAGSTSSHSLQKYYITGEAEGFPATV

O=C1CC[C@H](N2Cc3cc(N4CCN(CC5CCN(c6ccc([C@@H]7c8ccc(O)cc8CC[C@@H]7c7ccccc7)cc6)CC5)CC4)ccc3C2=O)C(=O)N1 [Compound A, (S)-3-(5-(4-((1-(4-((1R,2S)-6-hydroxy-2-phenyl-1,2,3,4-tetrahydronaphthalen-1-yl)phenyl)piperidin-4-yl)methyl)piperazin-1-yl)-1-oxoisoindolin-2-yl)piperidine-2,6-dione]
patients with TEAEs ([1]; 143 of 154, as of 6 Jun 2023): 92.9% | Any treatment-emergent AE, Any Grade ([1]; Part A + B, N=154): 143 (92.9) n (%) | Any treatment-emergent AE, Grade 3+ ([1]; Part A + B, N=154): 40 (26.0) n (%) | Any treatment-related AE, Any Grade ([1]; Part A + B, N=154): 114 (74.0) n (%) | Any treatment-related AE, Grade 3+ ([1]; Part A + B, N=154): 12 (7.8) n (%) | TEAE Anemia, Any Grade ([1]; Part A + B, N=154): 16 (10.4) n (%) | TEAE Anemia, Grade 3+ ([1]; Part A + B, N=154): 2 (1.3) n (%) | TEAE Arthralgia, Any Grade ([1]; Part A + B, N=154): 34 (22.1) n (%) | TEAE Arthralgia, Grade 3+ ([1]; Part A + B, N=154): 2 (1.3) n (%) | TEAE Aspartate aminotransferase increased, Any Grade ([1]; Part A + B, N=154): 21 (13.6) n (%) | TEAE Aspartate aminotransferase increased, Grade 3+ ([1]; Part A + B, N=154): 3 (1.9) n (%) | TEAE Back pain, Any Grade ([1]; Part A + B, N=154): 21 (13.6) n (%) | TEAE Back pain, Grade 3+ ([1]; Part A + B, N=154): 2 (1.3) n (%) | TEAE Constipation, Any Grade ([1]; Part A + B, N=154): 41 (26.6) n (%) | TEAE Constipation, Grade 3+ ([1]; Part A + B, N=154): 0 n (%) | TEAE Decreased appetite, Any Grade ([1]; Part A + B, N=154): 24 (15.6) n (%) | TEAE Decreased appetite, Grade 3+ ([1]; Part A + B, N=154): 1 (0.6) n (%) | TEAE Diarrhea, Any Grade ([1]; Part A + B, N=154): 19 (12.3) n (%) | TEAE Diarrhea, Grade 3+ ([1]; Part A + B, N=154): 0 n (%) | TEAE Fatigue, Any Grade ([1]; Part A + B, N=154): 62 (40.3) n (%) | TEAE Fatigue, Grade 3+ ([1]; Part A + B, N=154): 2 (1.3) n (%) | TEAE Headache, Any Grade ([1]; Part A + B, N=154): 25 (16.2) n (%) | TEAE Headache, Grade 3+ ([1]; Part A + B, N=154): 1 (0.6) n (%) | TEAE Hot flush, Any Grade ([1]; Part A + B, N=154): 24 (15.6) n (%) | TEAE Hot flush, Grade 3+ ([1]; Part A + B, N=154): 0 n (%) | TEAE Hyperglycemia, Any Grade ([1]; Part A + B, N=154): 16 (10.4) n (%) | TEAE Hyperglycemia, Grade 3+ ([1]; Part A + B, N=154): 0 n (%) | TEAE Nausea, Any Grade ([1]; Part A + B, N=154): 46 (29.9) n (%) | TEAE Nausea, Grade 3+ ([1]; Part A + B, N=154): 1 (0.6) n (%) | TEAE Pain in extremity, Any Grade ([1]; Part A + B, N=154): 17 (11.0) n (%) | TEAE Pain in extremity, Grade 3+ ([1]; Part A + B, N=154): 0 n (%) | TEAE Vomiting, Any Grade ([1]; Part A + B, N=154): 20 (13.0) n (%) | TEAE Vomiting, Grade 3+ ([1]; Part A + B, N=154): 0 n (%) | TRAE Arthralgia, Any Grade ([1]; Part A + B, N=154): 22 (14.3) n (%) | TRAE Arthralgia, Grade 3+ ([1]; Part A + B, N=154): 0 n (%) | TRAE Constipation, Any Grade ([1]; Part A + B, N=154): 16 (10.4) n (%) | TRAE Constipation, Grade 3+ ([1]; Part A + B, N=154): 0 n (%) | TRAE Fatigue, Any Grade ([1]; Part A + B, N=154): 48 (31.2) n (%) | TRAE Fatigue, Grade 3+ ([1]; Part A + B, N=154): 1 (0.6) n (%) | TRAE Hot flush, Any Grade ([1]; Part A + B, N=154): 20 (13.0) n (%) | TRAE Hot flush, Grade 3+ ([1]; Part A + B, N=154): 0 n (%) | TRAE Nausea, Any Grade ([1]; Part A + B, N=154): 36 (23.4) n (%) | TRAE Nausea, Grade 3+ ([1]; Part A + B, N=154): 1 (0.6) n (%) | TEAE Arthralgia ([1]; Parts A and B, N=154): 22.1% | TEAE Aspartate aminotransferase increased ([1]; Parts A and B, N=154): 13.6% | TEAE Back pain ([1]; Parts A and B, N=154): 13.6% | TEAE Constipation ([1]; Parts A and B, N=154): 26.6% | TEAE Decreased appetite ([1]; Parts A and B, N=154): 15.6% | TEAE Diarrhea ([1]; Parts A and B, N=154): 12.3% | TEAE Fatigue ([1]; Parts A and B, N=154): 40.3% | TEAE Headache ([1]; Parts A and B, N=154): 16.2% | TEAE Nausea ([1]; Parts A and B, N=154): 29.9% | TEAE Pain in extremity ([1]; Parts A and B, N=154): 11.0% | TEAE Vomiting ([1]; Parts A and B, N=154): 13.0% | TEAE anemia ([1]; Parts A and B, N=154): 10.4% | TEAE hot flush ([1]; Parts A and B, N=154): 15.6% | TEAE hyperglycaemia ([1]; Parts A and B, N=154): 10.4% | TRAE Arthralgia ([1]; Parts A and B, N=154): 14.3% | TRAE Constipation ([1]; Parts A and B, N=154): 10.4% | TRAE Fatigue ([1]; Parts A and B, N=154): 31.2% | TRAE Nausea ([1]; Parts A and B, N=154): 23.4% | TRAE hot flush ([1]; Parts A and B, N=154): 13.0% | tolerability [2]: well tolerated | NOAEL at 28 days [3]: 100 mg/kg/day | chromosomal damage in reticulocytes (reticulocytes): did not induce chromosomal damage | ER degradation with excess lenalidomide or with carfilzomib (ER): No degradation of ER | maximum ER degradation (ER): > 90%
